In patent US8809314B1, “Cephalosporin compound” (Cubist Pharmaceuticals, Inc., priority 2012, dated 2014):
Values after ≈ are worked out from the molar mass of the structure shown.

What was measured:
Sa399 (MRSA) = experiment: MIC, broth microdilution (Example 3), Table 1; type: cell-based; details: Staphylococcus aureus, CAMHB, final 2% NaCl
Protocol: (§1) To prepare for MIC testing, individual colonies were isolated by streaking frozen glycerol material containing Staphylococcus or Pseudomonas spp. onto rich, non-selective, tryptic soy agar containing 5% sheep's blood (TSAB), and incubated at 37° C. for 18-24 hrs.
(§2) On the day of testing, primary cultures were started by scraping off 5-10 colonies from the TSAB plates. The material was suspended in ˜5 mL of cation adjusted Mueller Hinton Broth (CAMHB) in 14 mL culture tubes and incubated at 37° C. with aeration (200 rpm) for ˜2 hrs until the OD600 was ≧0.1.
(§3) Inoculum cultures were prepared by standardizing the primary cultures to OD600=0.1 and then adding 20 μL of the adjusted primary culture per 1 mL CAMHB for Pseudomonas and CAMHB plus 4% NaCl for MRSA so that the final inoculum density was ˜10^5 colony forming units per milliliter. Diluted inoculum cultures were used to inoculate 50 μL per well in 96 well broth microdilution assay plates. 50 μL of CAMHB that contained compound concentrations ranging from 64-0.06 μg/mL in two-fold dilutions was also added to the broth microdilution assay plates for a final volume 100 μL per well, therefore final culture OD600 was approximately 0.001 and the final NaCl concentration for the MRSA strain was 2%.
(§4) Plates were incubated for 18-20 hours at 37° C. with aeration (200 rpm). Following incubation, growth was confirmed visually placing plates over a viewing apparatus (stand with a mirror underneath) and then OD600 was measured using a SpectraMax 340PC384 plate reader (Molecular Devices, Sunnyvale, Calif.). Growth was defined as turbidity that could be detected with the naked eye or achieving minimum OD600 of 0.1. MIC values were defined as the lowest concentration producing no visible turbidity.

Pa44 (WT Pa) = experiment: MIC, broth microdilution (Example 3), Table 1; type: cell-based; details: Pseudomonas aeruginosa, CAMHB
Protocol: as §1, §2, §3, §4

MRSA #712 = experiment: MIC in MHB by standard CLSI microdilution (Example 4); type: cell-based; details: Staphylococcus aureus; MRSA #712; read-out: MIC
Text: (§5) II. Methods • A. Animals: Six week-old, specific pathogen free, female CD-1 mice purchased from Charles River Laboratories (Wilmington, Mass.) were used for all studies after acclimation in Cubist animal facility. All animal procedures were approved by the Cubist Institutional Animal Care and Use Committee. • B. Bacteria and In Vitro Susceptibility Testing: MRSA #712, Pseudomonas aeruginosa #2245 and #2545, and Klebsiella pneumoniae #573 are clinical isolates; Pseudomonas aeruginosa #44 is an ATCC strain (ATCC#27853). MIC was determined in MHB by standard CLSI microdilution. Comparator Antibiotics Used in Animal Studies: Vancomycin hydrochloride USP was purchased from Hospira (Lake Forest, Ill.); ceftazidime hydrate from Sigma; Primaxin (imipenem and cilastatin) from Merck; ceftaroline was synthesized at a CRO. • D. Mouse Septicemia: Mice received lethal inocula of bacteria in 6% hog gastric mucin intraperitoneally (IP), followed by two treatment doses of antibiotics via subcutaneous (SC) administration at 1 and 6 hrs post-inoculation. The survival of animals was recorded daily for 7 days. The antibiotic dose calculated to protect 50% of the mice (PD50) was derived based on probit analysis of percentage survival. • E. Mouse Thigh and Lung Infections: Mice were rendered neutropenic by two IP injections of cyclophosphamide 4 days (150 mg/kg) and 1 day (100 mg/kg) before bacterial inoculation. Thigh or lung infection was induced by an intramuscular injection of 0.2 mL or intranasal inoculation of 0.1 mL inoculum preparation from an overnight bacterial culture into left thigh or nares. Tissues from one group of mice receiving no treatment (No Rx) were harvested at 1 hr for determination of baseline of bacterial burden. The remaining mice received two treatment doses of vehicles or antibiotics given SC at 1 and 6 hrs post-inoculation. Tissues from the treated mice were harvested at ˜24 hrs post-inoculation. Tissue bacterial burdens were quantified by serial dilution and spiral plating of homogenates.

Pa2086 (mucoid strain) = experiment: MIC, broth microdilution (Example 5), Table 3; type: cell-based; details: Pseudomonas aeruginosa
Protocol: (§6) II. […] MIC90 values were defined as the concentration required to inhibit growth of 90% of the strains tested. • C. SAR was performed using the following isolates: Sa399 (ATCC43300, MRSA), Sa1721 (NARSA NRS384, MRSA USA 300), Pa44 (ATCC27853), and 4 clinical isolates (Pa2241, Pa2086 (mucoid strain), Pa2694 and Pa2698). • D. The in vitro antibacterial activity of the compound of formula (I) was further evaluated in an expanded MRSA and Pa MIC panel (see Table 4 and FIG. 6).

Sa399 (ATCC43300, MRSA) = experiment: MIC, broth microdilution (Example 5), Table 3; type: cell-based; details: Staphylococcus aureus
Protocol: as §6

Pa2694 = experiment: MIC, broth microdilution (Example 5), Table 3; type: cell-based; details: Pseudomonas aeruginosa
Protocol: as §6

[1] = test system: Sa1721 (NARSA NRS384, MRSA USA 300); experiment: MIC, broth microdilution (Example 5), Table 3; type: cell-based; details: Staphylococcus aureus
Protocol: as §6

Pa2698 = experiment: MIC, broth microdilution (Example 5), Table 3; type: cell-based; details: Pseudomonas aeruginosa
Protocol: as §6

Pa2241 = experiment: MIC, broth microdilution (Example 5), Table 3; type: cell-based; details: Pseudomonas aeruginosa
Protocol: as §6

Pa44 (ATCC27853) = experiment: MIC, broth microdilution (Example 5), Table 3; type: cell-based; details: Pseudomonas aeruginosa
Protocol: as §6

MRSA (n = 21) = experiment: MIC90, expanded MIC panel (Table 4); type: cell-based; details: Staphylococcus aureus; 21 MRSA strains; read-out: MIC90 MRSA (n = 21)
Protocol: as §6

[2] = test system: ceftazidime-resistant Pseudomonas aeruginosa #2545; experiment: Lung infection in neutropenic mice; type: in vivo; details: Pa #2545 lung infection
Protocol: (§7) In vivo efficacy of (I) was evaluated against strains of MRSA, and ceftazidime-resistant Pa and Klebsiella pneumonia (Kpn) in mouse septicemia, thigh and lung infections. Septicemia: CD-1 mice received lethal bacterial inocula IP, followed by 2 doses of antibiotics SC at 1 and 6 hrs post-inoculation. Dose calculated to protect 50% of the mice (PD50) was derived based on probit analysis of percentage survival. Thigh and lung infections: Thighs or lungs of neutropenic mice were inoculated with MRSA or Pa. Two treatment doses were given SC at 1 and 6 hrs post-inoculation. Tissues were harvested at ˜24 hrs post-inoculation and bacterial burdens quantified.
as §5

[3] = test system: ceftazidime-susceptible Pseudomonas aeruginosa #44 (ATCC#27853); experiment: Lung infection in neutropenic mice; type: in vivo; details: Pa #44 lung infection
Protocol: as §7, §5

[4] = test system: ceftazidime-susceptible Pseudomonas aeruginosa #2245; experiment: Lung infection in neutropenic mice; type: in vivo; details: Pa #2245 lung infection, 3-log CFU reduction vs vehicle at 24 h
Protocol: as §7, §5

Kpn #573 = experiment: MIC in MHB by standard CLSI microdilution (Example 4); type: cell-based; details: Klebsiella pneumoniae
Text: as §5

Pa #2545 = experiment: as above; type: cell-based; details: Pseudomonas aeruginosa
Text: as §5

Pa #44 (ATCC27853) = experiment: as above; type: cell-based; details: Pseudomonas aeruginosa
Text: as §5

[5] = test system: Pseudomonas aeruginosa (n = 100); experiment: MIC90, expanded MIC panel (Table 4); type: cell-based; details: 100 Pa strains
Protocol: as §6

[6] = test system: ceftazidime-resistant Pseudomonas aeruginosa #2545; type: in vivo; details: Pa #2545; CD-1 mice, IP inoculum, 2 SC doses at 1 and 6 hrs, 7 day survival
Protocol: as §7
(§8) II. Methods • A. Animals: Six week-old, specific pathogen free, female CD-1 mice purchased from Charles River Laboratories (Wilmington, Mass.) were used for all studies after acclimation in Cubist animal facility. […] MIC was determined in MHB by standard CLSI microdilution. […] The survival of animals was recorded daily for 7 days. The antibiotic dose calculated to protect 50% of the mice (PD50) was derived based on probit analysis of percentage survival. • E. Mouse Thigh and Lung Infections: Mice were rendered neutropenic by two IP injections of cyclophosphamide 4 days (150 mg/kg) and 1 day (100 mg/kg) before bacterial inoculation. […] Tissue bacterial burdens were quantified by serial dilution and spiral plating of homogenates.

[7] = test system: Pseudomonas aeruginosa #44 (ATCC#27853); experiment: Mouse septicemia (systemic infection), PD50; type: in vivo; details: Pa #44 (ATCC27853), CD-1 mice, IP inoculum, 2 SC doses at 1 and 6 hrs, 7 day survival
Protocol: as §7
II. Methods • A. Animals: Six week-old, specific pathogen free, female CD-1 mice purchased from Charles River Laboratories (Wilmington, Mass.) were used for all studies after acclimation in Cubist animal facility. All animal procedures were approved by the Cubist Institutional Animal Care and Use Committee. • B. Bacteria and In Vitro Susceptibility Testing: MRSA #712, Pseudomonas aeruginosa #2245 and #2545, and Klebsiella pneumoniae #573 are clinical isolates; Pseudomonas aeruginosa #44 is an ATCC strain (ATCC#27853). MIC was determined in MHB by standard CLSI microdilution. […] The survival of animals was recorded daily for 7 days. The antibiotic dose calculated to protect 50% of the mice (PD50) was derived based on probit analysis of percentage survival. • E. Mouse Thigh and Lung Infections: Mice were rendered neutropenic by two IP injections of cyclophosphamide 4 days (150 mg/kg) and 1 day (100 mg/kg) before bacterial inoculation. […] Tissue bacterial burdens were quantified by serial dilution and spiral plating of homogenates.
III. […] The dose that protected 50% of the mice (PD50) was calculated by probit analysis based on percentage of mice surviving for 7 days post-inoculation. • C. […]

[8] = test system: Klebsiella pneumoniae #573; experiment: Mouse septicemia (systemic infection), PD50; type: in vivo; details: Kpn #573; CD-1 mice, IP inoculum, 2 SC doses at 1 and 6 hrs, 7 day survival
Protocol: as §7, §8

Row | MIC (Sa399 (MRSA)) [µg/mL] | MIC (Pa44 (WT Pa)) [µg/mL] | Structure (SMILES) | MIC (Pa2086 (mucoid strain)) [µg/mL] | MIC (Sa399 (ATCC43300, MRSA)) [µg/mL] | MIC (Pa2694) [µg/mL] | MIC [1] [µg/mL] | MIC (Pa2698) [µg/mL] | MIC (Pa2241) [µg/mL] | MIC (Pa44 (ATCC27853)) [µg/mL] | further results
1 | > 16 | ≤ 4 | CO/N=C(\C(=O)N[C@@H]1C(=O)N2C(C(=O)[O-])=C(C[N+]3(C)CCCC3)CS[C@H]12)c1csc(N)n1 [Cefepime] | – | – | – | – | – | – | – | –
2 | 8 to 16 (≈ 15.5 to 31.1 µM) | ≤ 4 | CO/N=C(\C(=O)N[C@@H]1C(=O)N2C(C(=O)[O-])=C(C[n+]3cccc4c3CCC4)CS[C@H]12)c1csc(N)n1 [Cefpirome] | – | – | – | – | – | – | – | –

The next lines start with the molecule.

Row | Structure (SMILES) | MIC (Sa399 (MRSA)) [µg/mL] | MIC (Pa44 (WT Pa)) [µg/mL] | MIC (Pa2086 (mucoid strain)) [µg/mL] | MIC (Sa399 (ATCC43300, MRSA)) [µg/mL] | MIC (Pa2694) [µg/mL] | MIC [1] [µg/mL] | MIC (Pa2698) [µg/mL] | MIC (Pa2241) [µg/mL] | MIC (Pa44 (ATCC27853)) [µg/mL] | further results
3 | CCO/N=C(\C(=O)N[C@@H]1C(=O)N2C(C(=O)[O-])=C(Sc3nc(-c4cc[n+](C)cc4)cs3)CS[C@H]12)c1nsc(N)n1 [Ceftaroline, ceftaroline] | – | – | 16 (≈ 26.5 µM) | 0.5 (≈ 0.827 µM) | > 64 | 2 (≈ 3.31 µM) | > 64 | 16 (≈ 26.5 µM) | 8 (≈ 13.2 µM) | MIC (MRSA #712): 1 µg/mL (≈ 1.65 µM); MIC90 (MRSA (n = 21)): 1 µg/mL (≈ 1.65 µM)
4 | CC(C)(O/N=C(\C(=O)N[C@@H]1C(=O)N2C(C(=O)[O-])=C(C[n+]3ccccc3)CS[C@H]12)c1csc(N)n1)C(=O)O [Ceftazidime] | > 16 | ≤ 4 | 2 (≈ 3.66 µM) | 64 (≈ 117 µM) | 8 (≈ 14.6 µM) | > 64 | 8 (≈ 14.6 µM) | 2 (≈ 3.66 µM) | 2 (≈ 3.66 µM) | Lung (L) ED−2log ([2]; neutropenic mice, 2 SC doses at 1 and 6 hrs, 24 h, vs vehicle): >144.5 (L) mg/kg; impact on the bacterial burden in the lung ([2]; up to 144.5 mg/kg): minimal impact; Lung (L) ED−2log ([3]; 2 SC doses at 1 and 6 hrs, 24 h, vs vehicle): 25.6 (L) mg/kg; ED−3 log ([3]; 3-log CFU reduction vs vehicle at 24 h): 50.4 mg/kg; ED−3 log [4]: 27.2 mg/kg; MIC (Kpn #573): 256 µg/mL (≈ 468 µM); MIC (Pa #2545): 32 to 64 µg/mL (≈ 58.5 to 117 µM); MIC (Pa #44 (ATCC27853)): 1 µg/mL (≈ 1.83 µM); MIC90 [5]: 8 µg/mL (≈ 14.6 µM); Septicemia PD50 (± SE) [6]: >140.5 mg/kg; Septicemia PD50 (± SE) [7]: 33.9 ± 7.4 mg/kg; Septicemia PD50 (± SE) ([7]; listed as ceftazidime): 33.9 ± 7.4 mg/kg; Septicemia PD50 (± SE) [8]: 50.3 ± 8.4 mg/kg
5 | CO/N=C(\C(=O)N[C@@H]1C(=O)N2C(C(=O)[O-])=C(C[n+]3ccc(CN)cc3)CS[C@H]12)c1csc(N)n1 [Compound 1-1] | > 16 | ≤ 4 | – | – | – | – | – | – | – | –
